Measured values from article PMC11354674, “Genome Mining and Genetic Manipulation Reveal New Isofuranonaphthoquinones in Nocardia Species” (International Journal of Molecular Sciences, 2024).
Where two headings read alike, the source gives them in different places.

Assays:
HeLa = experiment: cells; design: species or system A549, Huh7, U87MG, HaCaT; MTT colorimetric cell growth / viability assay; conditions: Homo sapiens, HeLa, 72 h; read-out: NOC-IBR1 IC50
Method: (§1) Lung cancer cells (A549), liver cancer cells (Huh7), cervical cancer cells (HeLa), brain cancer cells (U87MG), and a normal cell line (human keratinocyte cell line (HaCaT)) were acquired from the Korean Cell Line Bank (Seoul, Republic of Korea). Ten percent fetal bovine serum (FBS) was added to Dulbecco’s modified Eagle’s medium (DMEM) to culture the HeLa A549 cells. Similarly, Huh7 cells were grown in DMEM obtained from Corning Cellgro Manassas, VA, USA. Glioblastoma U87MG cells were cultured in a minimum essential medium (MEM) supplemented with 10% FBS. DMEM supplemented with 10% FBS, 100 µg/mL streptomycin, and 100 µg/mL benzylpenicillin was used to grow HaCaT cell lines. Each cell line was kept in an incubator with 5% CO2 that was humidified at 37 °C (Thermo Scientific, Vantaa, Finland). For the cell growth assays, various cancer cells at 2 × 10^3 cells/well were plated in 96-well culture plates. NOC-IBR1 and NOC-IBR2 were added to each well at various concentrations (200 μM, 100 μM, 50 μM, 25 μM, 12.5 μM, 6.25 μM, 3.16 μM, 1.56 μM, and 0.78 μM), and the cells were incubated for 72 h. A 3-(4,5-dimethylthiazol-2-yl)-2,5-diphenyltetrazolium bromide (MTT) colorimetric assay was used to measure cell growth (cell viability).  Figure 4 The cytotoxicity of NOC-IBR1 and NOC-IBR2 was assessed across different cell lines. Each cell line was maintained in a 5% CO2 humidified incubator at 37 °C. The cells were seeded at a density of 2 × 10^3 cells/well in 96-well culture plates for the cell growth assay. Various concentrations of the compounds (200 μM, 100 μM, 50 μM, 25 μM, 12.5 μM, 6.25 μM, 3.16 μM, 1.56 μM, and 0.78 μM) were added to each well, and the cells were incubated for 72 h. Cell growth was measured using the MTT colorimetric assay. NOC-IBR1 and NOC-IBR2 were further subjected to cytotoxicity assays against four different cancer cell lines using a colorimetric test of 3-(4,5-dimethylthiazol-2-yl)-2,5-diphenyltetrazolium bromide (MTT) (Figure 4). […] Similarly, the IC50 values of doxorubicin in the above cell lines were also calculated (Table S4). […] These findings further indicate that NOC-IBR1 and NOC-IBR2 substantially reduce the viability of A549, Huh7, HeLa, and U87MG cells in a dose-dependent manner. This is the first report on the cytotoxicity of these two compounds against cancer cell lines.

U87MG = experiment: cells; design: species or system A549, Huh7, HeLa, HaCaT; MTT colorimetric cell growth / viability assay; conditions: Homo sapiens, U-87 MG, 72 h; read-out: NOC-IBR1 IC50
Method: as §1

A549 = experiment: cells; design: species or system Huh7, HeLa, U87MG, HaCaT; MTT colorimetric cell growth / viability assay; conditions: Homo sapiens, A549, 72 h; read-out: NOC-IBR1 IC50
Method: as §1

Huh7 = experiment: cells; design: species or system A549, HeLa, U87MG, HaCaT; MTT colorimetric cell growth / viability assay; conditions: Homo sapiens, Huh-7, 72 h; read-out: NOC-IBR1 IC50
Method: as §1

in vitro = experiment: in vitro; design: species or system A549, Huh7, HeLa, U87MG; MTT colorimetric cell growth / viability assay; conditions: human, hacat cells
Method: Lung cancer cells (A549), liver cancer cells (Huh7), cervical cancer cells (HeLa), brain cancer cells (U87MG), and a normal cell line (human keratinocyte cell line (HaCaT)) were acquired from the Korean Cell Line Bank (Seoul, Republic of Korea). Ten percent fetal bovine serum (FBS) was added to Dulbecco’s modified Eagle’s medium (DMEM) to culture the HeLa A549 cells. Similarly, Huh7 cells were grown in DMEM obtained from Corning Cellgro Manassas, VA, USA. Glioblastoma U87MG cells were cultured in a minimum essential medium (MEM) supplemented with 10% FBS. DMEM supplemented with 10% FBS, 100 µg/mL streptomycin, and 100 µg/mL benzylpenicillin was used to grow HaCaT cell lines. Each cell line was kept in an incubator with 5% CO2 that was humidified at 37 °C (Thermo Scientific, Vantaa, Finland). For the cell growth assays, various cancer cells at 2 × 10^3 cells/well were plated in 96-well culture plates. NOC-IBR1 and NOC-IBR2 were added to each well at various concentrations (200 μM, 100 μM, 50 μM, 25 μM, 12.5 μM, 6.25 μM, 3.16 μM, 1.56 μM, and 0.78 μM), and the cells were incubated for 72 h. […] Figure 4 The cytotoxicity of NOC-IBR1 and NOC-IBR2 was assessed across different cell lines. […] Cell growth was measured using the MTT colorimetric assay. […] Similarly, the IC50 values of doxorubicin in the above cell lines were also calculated (Table S4). […]

ThnM3 = test system: T1, ThnM3; experiment: O-methylation assay, HPLC, nonlinear Michaelis-Menten fit; format: biochemical, Nocardia sp. CS682; conditions: 50 mM Tris, pH 8 in methods but pH 7.5 in Figure 5 legend, 5 µg ThnM3
T1 construct: methyltransferase of the tetrahydroxynaphthalene (THN) gene cluster

## COc1cc2c(c(O)c1O)C(=O)c1c(coc1C)C2 [NOC-IBR1, 6-methoxy-7,8-dihydroxy-1-methylnaphtho [2,3-c] furan-9-one]
HeLa
  IC50: 61.1 µM
U87MG
  IC50: 120 µM
A549
  IC50: 200 µM
Huh7
  IC50: 44.4 µM
In vitro; read-out: NOC-IBR1 IC50 (μM), normal cells
  CC50 at 72 h: > 200 µM
ThnM3; 2 mM SAM (saturating), read-out: apparent Km
  Km: 15.6 ± 1.75 µM

## COc1cccc2c1C(=O)c1c(O)c3c(c(O)c1C2=O)C[C@@](O)(C(=O)CO)C[C@@H]3O[C@H]1C[C@H](N)[C@H](O)[C@H](C)O1 [Doxorubicin]
In vitro; read-out: Doxorubicin IC50 (μM), normal cells
  CC50 at 72 h: 0.681 µM

## C[S+](CC[C@H](N)C(=O)O)C[C@H]1O[C@@H](n2cnc3c(N)ncnc32)[C@H](O)[C@@H]1O (some centres unmarked) [SAM]
ThnM3; methyl donor, 100 µM NOC-IBR1 (near-saturating), read-out: Km
  Km: 39.7 ± 6.08 µM
